Counter-ions that a name gives are not always drawn.
target: 5HT2A (Homo sapiens, UniProt P28223); experiment: 5HT2A Activity (% Max Activation @ 0.3 uM); format: cell-based
Sequence (P28223 whole entry): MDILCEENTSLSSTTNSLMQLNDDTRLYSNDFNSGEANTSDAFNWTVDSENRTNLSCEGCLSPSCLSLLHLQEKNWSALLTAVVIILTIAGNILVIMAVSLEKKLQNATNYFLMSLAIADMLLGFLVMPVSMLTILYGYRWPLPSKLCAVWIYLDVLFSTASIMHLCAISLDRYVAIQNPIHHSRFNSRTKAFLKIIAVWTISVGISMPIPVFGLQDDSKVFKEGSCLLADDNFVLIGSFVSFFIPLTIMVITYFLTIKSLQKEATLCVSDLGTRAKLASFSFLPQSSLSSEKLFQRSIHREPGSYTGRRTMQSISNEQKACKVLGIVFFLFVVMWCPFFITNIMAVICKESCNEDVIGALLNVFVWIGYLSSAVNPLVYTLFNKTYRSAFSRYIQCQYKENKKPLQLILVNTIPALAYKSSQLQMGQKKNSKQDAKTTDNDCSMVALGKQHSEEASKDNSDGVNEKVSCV

Compared with `COc1ccc(OC)c2c1CCC(NCc1cc(C)cc(Cl)c1)C2` (stereo not shown) [Compound 1-1, N-(3-chloro-5-methylbenzyl)-5,8-dimethoxy-1,2,3,4-tetrahydronaphthalen-2-amine], `COc1ccc(OC)c2c1CC(NCc1cc(C)cc(Cl)c1)C2` [Compound 1-20, N-(3-chloro-5-methylbenzyl)-4,7-dimethoxy-2,3-dihydro-1H-inden-2-amine hydrochloride] is lower in Emax at 0.3 µM: 67% for the first, 59% for the second.

`COc1cc(I)c(OC)c2c1CC(NCc1cc(C)cc(Cl)c1)CC2` (stereo not shown) [Compound 1-2A, N-(3-chloro-5-methylbenzyl)-6-iodo-5,8-dimethoxy-1,2,3,4-tetrahydronaphthalen-2-amine] and `COc1cc(C)c(OC)c2c1CC(NCc1cc(C)cc(Cl)c1)CC2` (stereo not shown) [Compound 1-19, N-(3-chloro-5-methylbenzyl)-5,8-dimethoxy-6-methyl-1,2,3,4-tetrahydro-naphthalen-2-amine hydrochloride] are the same in Emax at 0.3 µM: 73% for the first, 73% for the second.

Going from `COc1ccc(OC)c2c1CCC(NCc1cc(C)cc(F)c1)C2` (stereo not shown) [Compound 1-3, N-(3-fluoro-5-methylbenzyl)-5,8-dimethoxy-1,2,3,4-tetrahydronaphthalen-2-amine] to `COc1ccc(OC)c2c1CCC(NCc1cc(C)cc(Br)c1)C2` (stereo not shown) [Compound 1-4, N-(3-bromo-5-methylbenzyl)-5,8-dimethoxy-1,2,3,4-tetrahydronaphthalen-2-amine], the Emax at 0.3 µM falls from 76% to 42%.

Going from `COc1ccc(OC)c2c1CCC(NCc1cc(C)cc(I)c1)C2` (stereo not shown) [Compound 1-5, N-(3-iodo-5-methylbenzyl)-5,8-dimethoxy-1,2,3,4-tetrahydronaphthalen-2-amine] to `COc1ccc(OC)c2c1CCC(NCc1cc(Cl)cc(Cl)c1)C2` (stereo not shown) [Compound 1-15, N-(3,5-dichlorobenzyl)-5,8-dimethoxy-1,2,3,4-tetrahydronaphthalen-2-amine], the Emax at 0.3 µM falls from 12% to 11%.

Going from `COc1ccc(OC)c2c1CCC(NCc1cccc(Cl)c1C)C2` (stereo not shown) [Compound 1-9, N-(3-chloro-2-methylbenzyl)-5,8-dimethoxy-1,2,3,4-tetrahydronaphthalen-2-amine] to `COc1ccc(OC)c2c1CCC(NCc1cccc(C)c1Cl)C2` (stereo not shown) [Compound 1-10, N-(2-chloro-3-methylbenzyl)-5,8-dimethoxy-1,2,3,4-tetrahydronaphthalen-2-amine], the Emax at 0.3 µM falls from 7% to 2%.

Compared with `COc1ccc(OC)c2c1CCC(NCc1ccc(Cl)cc1C)C2` (stereo not shown) [Compound 1-11, N-(4-chloro-2-methylbenzyl)-5,8-dimethoxy-1,2,3,4-tetrahydronaphthalen-2-amine], `COc1ccc(OC)c2c1CCC(NCc1ccc(C)cc1Cl)C2` (stereo not shown) [Compound 1-12, N-(2-chloro-4-methylbenzyl)-5,8-dimethoxy-1,2,3,4-tetrahydronaphthalen-2-amine] is higher in Emax at 0.3 µM: 1% for the first, 4% for the second.

Going from `COc1ccc(OC)c2c1CCC(NCc1cc(C)ccc1Cl)C2` (stereo not shown) [Compound 1-13, N-(2-chloro-5-methylbenzyl)-5,8-dimethoxy-1,2,3,4-tetrahydronaphthalen-2-Amine] to `COc1ccc(OC)c2c1CCC(NCc1cccc(Cl)c1Cl)C2` (stereo not shown) [Compound 1-17, N-(2,3-dichlorobenzyl)-5,8-dimethoxy-1,2,3,4-tetrahydronaphthalen-2-amine], the Emax at 0.3 µM falls from 15% to 1%.

First: COc1ccc(OC)c2c1CCC(NCc1ccccc1)C2 (stereo not shown) [Compound 1-18, N-benzyl-5,8-dimethoxy-1,2,3,4-tetrahydronaphthalen-2-amine]
Second: COc1ccc(OC)c2c1CCC2NCc1cc(C)cc(Cl)c1 (stereo not shown) [Compound 1-21, N-(3-chloro-5-methylbenzyl)-4,7-dimethoxy-2,3-dihydro-1H-1-inden-1-amine]
The Emax at 0.3 µM of the first is lower: 6% for the first, 9% for the second.

Compared with `COc1ccc(OC)c(CCNCc2cc(C)cc(F)c2)c1` [Compound 2-2, 2-(2,5-dimethoxyphenyl)-N-(3-fluoro-5-methylbenzyl)ethan-1-amine], `COc1ccc(OC)c(CCNCc2cc(C)cc(Br)c2)c1` [Compound 2-10, N-(3-bromo-5-methylbenzyl)-2-(2,5-dimethoxyphenyl)ethan-1-amine] is higher in Emax at 0.3 µM: 76% for the first, 79% for the second.

Going from `COc1ccc(OC)c(CCNCc2ccc(C)cc2Cl)c1` [Compound 2-3, N-(2-chloro-4-methylbenzyl)-2-(2,5-dimethoxyphenyl)ethan-1-amine] to `COc1ccc(OC)c(CCNCc2cc(C)ccc2Cl)c1` [Compound 2-4, N-(2-chloro-5-methylbenzyl)-2-(2,5-dimethoxyphenyl)ethan-1-amine], the Emax at 0.3 µM rises from 8% to 67%.

Going from `COc1ccc(OC)c(CCNCc2cc(Cl)cc(Cl)c2)c1` [Compound 2-6, N-(3,5-dichlorobenzyl)-2-(2,5-dimethoxyphenyl)ethan-1-amine] to `COc1ccc(OC)c(CCNCc2cc(C)cc(I)c2)c1` [Compound 2-11, 2-(2,5-dimethoxyphenyl)-N-(3-iodo-5-methylbenzyl)ethan-1-amine], the Emax at 0.3 µM rises from 68% to 76%.

First: COc1ccc(OC)c(CCNCc2cccc(Cl)c2Cl)c1 [Compound 2-8, N-(2,3-dichlorobenzyl)-2-(2,5-dimethoxyphenyl)ethan-1-amine]
Second: COc1ccc(OC)c(CCNCc2cccc(Cl)c2C)c1 [Compound 2-15]
The Emax at 0.3 µM of the first is higher: 33% for the first, 20% for the second.

Going from `COc1ccc(OC)c(CCNCc2cc(C)cc([N+](=O)[O-])c2)c1` [Compound 2-9, 2-(2,5-dimethoxyphenyl)-N-(3-methyl-5-nitrobenzyl)ethan-1-amine] to `COc1ccc(OC)c(CCNCc2cc(C)cc(C#N)c2)c1` [Compound 2-36, 3-(((2,5-dimethoxyphenethyl)amino)methyl)-5-methylbenzonitrile], the Emax at 0.3 µM rises from 5% to 16%.

Compared with `COc1ccc(OC)c(CCNCc2cc(Cl)ccc2C)c1` [Compound 2-12, N-(5-chloro-2-methylbenzyl)-2-(2,5-dimethoxyphenyl)ethan-1-amine], `COc1ccc(OC)c(CCNCc2cccc(C)c2Cl)c1` [Compound 2-16, N-(2-chloro-3-methylbenzyl)-2-(2,5-dimethoxyphenyl)ethan-1-amine] is higher in Emax at 0.3 µM: 41% for the first, 64% for the second.

First: COc1ccc(OC)c(CCNCc2ccc(Cl)c(C)c2)c1 [Compound 2-14, N-(4-chloro-3-methylbenzyl)-2-(2,5-dimethoxyphenyl)ethan-1-amine]
Second: COc1ccc(OC)c(CC(CO)NCc2cc(C)cc(Cl)c2)c1 (stereo not shown) [Compound 2-29, 2-((3-chloro-5-methylbenzyl)amino)-3-(2,5-dimethoxyphenyl)propan-1-ol]
The Emax at 0.3 µM of the first is lower: 1% for the first, 27% for the second.

First: COc1cc(CCNCc2cc(C)cc(Cl)c2)c(OC)cc1C [Compound 2-18, N-(3-chloro-5-methylbenzyl)-2-(2,5-dimethoxy-4-methylphenyl)ethan-1-amine]
Second: COc1cc(CCNCc2cc(C)cc(Cl)c2)c(OC)cc1F [Compound 2-20, N-(3-chloro-5-methylbenzyl)-2-(4-fluoro-2,5-dimethoxyphenyl)ethan-1-amine]
The Emax at 0.3 µM of the first is higher: 94% for the first, 89% for the second.

First: CCc1cc(OC)c(CCNCc2cc(C)cc(Cl)c2)cc1OC [Compound 2-19, N-(3-chloro-5-methylbenzyl)-2-(4-ethyl-2,5-dimethoxyphenyl)ethan-1-amine]
Second: COc1cc(CCNCc2cc(C)cc(Cl)c2)c(OC)cc1Cl [Compound 2-21, 2-(4-chloro-2,5-dimethoxyphenyl)-N-(3-chloro-5-methylbenzyl)ethan-1-amine]
The Emax at 0.3 µM of the first is lower: 84% for the first, 92% for the second.

Compared with `COc1cc(CCNCc2cc(C)cc(Cl)c2)c(OC)cc1Br` [Compound 2-22, 2-(4-bromo-2,5-dimethoxyphenyl)-N-(3-chloro-5-methylbenzyl)ethan-1-amine], `COc1cc(SC)c(OC)cc1CCNCc1cc(C)cc(Cl)c1` [Compound 2-24, N-(3-chloro-5-methylbenzyl)-2-(2,5-dimethoxy-4-(methylthio)phenyl)ethan-1-amine] is higher in Emax at 0.3 µM: 85% for the first, 91% for the second.

Going from `COc1cc(CCNCc2cc(C)cc(Cl)c2)c(OC)cc1C#N` [Compound 2-23, 4-(2-((3-chloro-5-methylbenzyl)amino)ethyl)-2,5-dimethoxybenzonitrile] to `COc1cc([S+](C)[O-])c(OC)cc1CCNCc1cc(C)cc(Cl)c1` (stereo not shown) [Compound 2-25, N-(3-chloro-5-methylbenzyl)-2-(2,5-dimethoxy-4-(methylsulfinyl)phenyl)-ethan-1-amine], the Emax at 0.3 µM falls from 96% to 95%.

Going from `COc1cc(S(C)(=O)=O)c(OC)cc1CCNCc1cc(C)cc(Cl)c1` [Compound 2-26, (3-chloro-5-methylbenzyl)-2-(2,5-dimethoxy-4-(methylsulfonyl)phenyl)ethan-1-amine] to `COc1cc([S@](C)(=N)=O)c(OC)cc1CCNCc1cc(C)cc(Cl)c1` [Compound 2-34, (R)-(4-(2-((3-chloro-5-methylbenzyl)amino)ethyl)-2,5-dimethoxyphenyl)(imino)(methyl)-16-sulfanone], the Emax at 0.3 µM falls from 95% to 56%.

Compared with `COc1ccc(OC)c(C(O)CNCc2cc(C)cc(Cl)c2)c1` (stereo not shown) [Compound 2-30, 2-((3-chloro-5-methylbenzyl)amino)-1-(2,5-dimethoxyphenyl)ethan-1-ol], `COc1ccc(OC)c([C@@H](O)CNCc2cc(C)cc(Cl)c2)c1` [Compound 2-32, (R)-2-((3-chloro-5-methylbenzyl)amino)-1-(2,5-dimethoxyphenyl)ethan-1-ol] is higher in Emax at 0.3 µM: 80% for the first, 83% for the second.

Going from `COc1cc(N2CCOCC2)c(OC)cc1CCNCc1cc(C)cc(Cl)c1` [Compound 2-31, N-(3-chloro-5-methylbenzyl)-2-(2,5-dimethoxy-4-morpholinophenyl)ethan-1-amine] to `COc1cc([S@@](C)(=N)=O)c(OC)cc1CCNCc1cc(C)cc(Cl)c1` [Compound 2-35, (S)-(4-(2-((3-chloro-5-methylbenzyl)amino)ethyl)-2,5-dimethoxyphenyl)(imino)(methyl)-16-sulfanone], the Emax at 0.3 µM rises from 41% to 50%.

Compared with `COc1ccc(OC)c([C@H](O)CNCc2cc(C)cc(Cl)c2)c1` [Compound 2-33, (S)-2-((3-chloro-5-methylbenzyl)amino)-1-(2,5-dimethoxyphenyl)ethan-1-ol], `COc1ccc(OC)c([C@@H](O)CNCc2cc(C)cc(F)c2)c1` [Compound 2-41, (R)-1-(2,5-dimethoxyphenyl)-2-((3-fluoro-5-methylbenzyl)amino)ethan-1-ol hydrochloride] is higher in Emax at 0.3 µM: 39% for the first, 74% for the second.
